Data from US7563903B2, “Acylaminothiazole derivatives, their preparation and their therapeutic use” (Sanofi-Aventis, priority 2003, dated 2009).

Target: T1, gamma-secretase (Homo sapiens, UniProt P49768, M146L)
T1 construct: expressed in transfected cells; host or cells: CHO-K1 (clone 30-12)
Test: β-amyloid cellular trial: inhibition of β-amyloid peptide (β-A4) production, ELISA
Type: cell-based
Details: CHO-K1 line coexpressing the CT100 of APP and PSI M146L clone 30-12, 24-25 h incubation, ELISA of supernatants, read-out: EC50 (50% effective concentration)
Description: For the β-amyloid cellular trial, the CHO-K1 line coexpressing the CT100 of APP and PSI M146L clone 30-12 is used. The line targets the inhibition of gamma-secretase. Presenilin is linked to the gamma-secretase activity (Wolfe M S, Haass C., The Role of presenilins in gamma-secretase activity, J. Biol. Chem., Feb. 23, 2001 276(8), 5413-6) and its coexpression with the amyloid protein or its N-terminal fragment causes an increase in the secretion of the A1-42 peptide (β-A4) thus generating a pharmacological tool which makes it possible to evaluate inhibition by the compounds of formula (I) of the production of the β-A4 peptide. The inoculation of the 96-well culture plates is carried out at the rate of 1×10^5 cells per well in 150 μl of incubation medium. […]
The quantity of bound peptide is detected in an indirect manner in the presence of a competitor corresponding to the truncated peptide, peptide 1-28 coupled to biotin which is then detected with streptavidin coupled to alkaline phosphatase. The substrate, p-Nitrophenyl Phosphate (pNPP FAST p-Nitrophenyl Phosphate, Sigma N2770), gives a yellow soluble reaction product which can be read at 405 nm. […] After incubating for 30 minutes at room temperature, the reaction is stopped by the addition of 100 μl per well of 0.1M EDTA and the reading is carried out at 405 nm.

`CCC[C@H](NC(=O)[C@@H](O)C(C)(C)C)C(=O)Nc1ncc(-c2ccccc2COc2ccc(Cl)c(Cl)c2)s1` [compound 50, (2S)—N-(5-{2-[(3,4-dichlorophenoxy)methyl]phenyl}-1,3-thiazol-2-yl)-2-{[(2S)-2-hydroxy-3,3-dimethylbutanoyl]amino}pentanamide] gave an EC50 of 0.295 µM.
